Measurements published in patent US20210069295A1, “GALECTINS CONTROL MTOR IN RESPONSE TO ENDOMEMBRANE DAMAGE AND PROVIDE A MECHANISM AND TARGET FOR THE TREATMENT OF AUTOPHAGY-RELATED DISEASES” (STC. UNM, priority 2017, published 2021).

How the values were obtained:
Type in all cases: binding
[1] = tested on: LAMTOR1/p18 and Rag GTPases; assay: GST-pulldown assay with in vitro translated proteins; details: 35S-methionine labeled
Method: (D) Immunoprecipitation analysis of interactions between Gal8 and Ragulator components p14, p18 and MP1. HEK293T cells overexpressing FLAG-tagged Gal8 were immunoprecipitated/collected with anti-FLAG (beads). Cell lysates and collected immune complexes were blotted for endogenous p18, p14, and MP1. (E)(i-ii) GST pulldown assay with in vitro translated Myc-tagged Gal8 or Gal9 and GST-tagged p18. GST-tagged p18 immobilized on Gluthatione sepharose beads were incubated with in vitro translated Myc-tagged Gal8 or Gal9 radiolabeled with 35S-methionine. Interactions were assessed by autoradiography. Data (% binding), means±SEM, n=3, † p≥0.05, **p<0.01, ANOVA. (F)(i-iv) GST pulldown assay with in vitro translated Myc-tagged Rag proteins and GST-tagged Gal8. […] Interactions were assessed by autoradiography. […]
GST and GST-tagged proteins were produced in SoluBL21 Competent E. coli (Genlantis, C700200) and purified by binding to Glutathionine Sepharose 4 Fast Flow beads (GE Healthcare, 17-5132-01) while myc-tagged proteins were in vitro translated using the TNT T7 Reticulocyte Lysate System (Promega, 14610) in the presence of ^35S-methionine. […] Radioactive signals were detected by Fujifilm bioimaging analyzer BAS-5000 and quantified with ScienceLab ImageGuage software (Fujifilm).

[2] = tested on: AMPKα; assay: Co-IP of FLAG-tagged galectins with endogenous AMPKα in HEK293T cells; details: HEK293T overexpressing FLAG-tagged galectins
[3] = target: T1, TAK1 (Homo sapiens, UniProt O43318); assay: Co-IP of FLAG-tagged galectins with GFP-tagged TAK1 in HEK293T cells; details: HEK293T overexpressing FLAG-tagged galectins and GFP-TAK1
T1 sequence (O43318 1-606): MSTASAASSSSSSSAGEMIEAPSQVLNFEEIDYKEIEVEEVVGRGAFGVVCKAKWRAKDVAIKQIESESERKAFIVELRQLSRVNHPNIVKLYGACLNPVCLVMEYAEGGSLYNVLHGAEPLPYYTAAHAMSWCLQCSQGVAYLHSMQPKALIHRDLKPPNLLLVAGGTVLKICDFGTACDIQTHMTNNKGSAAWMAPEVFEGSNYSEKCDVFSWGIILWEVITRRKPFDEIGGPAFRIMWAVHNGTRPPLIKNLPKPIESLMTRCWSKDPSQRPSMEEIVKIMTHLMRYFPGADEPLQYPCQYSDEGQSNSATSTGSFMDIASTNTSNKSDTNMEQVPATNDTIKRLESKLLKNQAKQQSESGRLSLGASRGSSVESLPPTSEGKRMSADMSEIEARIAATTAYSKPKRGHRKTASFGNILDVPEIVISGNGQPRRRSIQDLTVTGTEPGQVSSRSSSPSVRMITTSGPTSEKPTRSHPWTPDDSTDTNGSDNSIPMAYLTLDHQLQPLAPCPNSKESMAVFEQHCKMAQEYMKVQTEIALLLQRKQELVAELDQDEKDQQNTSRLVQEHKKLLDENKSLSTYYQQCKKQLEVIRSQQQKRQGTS
Method: (A) Analysis of the activation of AMPK in wildtype (WT) and the complementation of Gal9 in Gal9-knockout (Gal9KO) HEK293A cells treated with 100 μM GPN in full medium for 1 h. AMPK activity was monitored by immunoblotting analysis of AMPKα (T172) and acetyl-CoA carboxylase (ACC, S79) phosphorylation (phosphorylated AMPKα (T172) and ACC (S79) relative to total AMPKα and ACC respectively). (B) HEK293T cells transfected with scrambled siRNA (Scr) or Gal9 siRNA (Gal9KD) were treated with 2 mM LLOMe in full medium for 1 h, and the cell lysates were analyzed for phosphorylation of indicated proteins. Data, means±SEM, n=3, *p<0.05, ANOVA. (C) HEK293T cells overexpressing FLAG-Gal9 were treated with 2 mM LLOMe in full medium for 1 h. Cell lysates were analyzed for the indicated proteins. Data, means±SEM, n=3, *p<0.05, ANOVA. (D) Immunoprecipitation analysis of the interactions between galectins and TAK1. HEK293T cells overexpressing FLAG-tagged galectins and GFP-tagged TAK1 were subjected to anti-FLAG immunoprecipitation followed by immunoblotting for GFP-tagged TAK1. (E) Schematic diagram of Gal9 domains and deletion constructs. (F) HEK293T cells overexpressing FLAG-tagged full-length or truncated Gal9 and GFPAMPK were subjected to anti-FLAG immunoprecipitation, followed by immunoblotting for GFP-AMPK. (G) HEK293T cells overexpressing FLAG-tagged full-length or truncated Gal9 and GFP-TAK1 were subjected to anti-FLAG immunoprecipitation, followed by immunoblotting for GFP-TAK1. (H) Analysis of the activation of AMPK in HEK293T cells subjected to knockdowns as indicated treated with 100 μM GPN in full medium for 1 h. AMPK activity was monitored by immunoblotting analysis of AMPKα (T172) and acetyl-CoA carboxylase (ACC, S79) phosphorylation (phosphorylated AMPKα (T172) and ACC (S79) relative to total AMPKα and ACC respectively). Cells transfected with scrambled siRNA were as control (Scr). […]

direct binding to Ragulator (LAMTOR1/p18) and Rag GTPases in GST-pulldown [1]	interaction with TAK1 [3]	Substance	AMPKα in complexes (co-IP) with galectin [2]
direct interactions	not	Gal8: protein of the galectin family encoded by the gene LGALS8; beta-galactoside-binding lectin	not detected
did not show direct binding	interacted	Gal9: beta-galactoside-binding lectin protein of the galectin family	found in co-IPs
